Like-named read-outs stand apart in the source and are kept apart here.
Legend:
[1] = 48-well, 0.5 g 0.8 mm media, 0.125 ml slurry, HPC-SL 4:1, 48 hours
Experimental: (§1) Naproxen and hydroxypropyllcellulose (HPC-SL) as a surface stabilizer were combined at a drug:stabilizer ratio of 4:1. Samples of the composition and grinding media, as shown in the table below, were added to the wells of a 48-well microplate. One well was used for each condition. The microplate was then agitated at the maximum sustainable speed using an orbital shaking platform driven by a standard laboratory magnetic stirring device. After 48 hours, the average particle size of naproxen was estimated by light microscopy.

[2] = 24-well, 48 hours
Experimental: In this example 0.8 mm media was used.
as §1, with “24-well microplate” for “48-well microplate.”, “hours” for “hours,”

Average Particle Size ([1]; 0.125 mg drug): <1 μm
Average Particle Size ([1]; 0.625 mg drug): <1 μm
Average Particle Size ([1]; 1.25 mg drug): <0.5 μm
Average Particle Size ([1]; 2.5 mg drug): <0.5 μm
Average Particle Size of Naproxen ([2]; 0.25 mg drug, 1 g 0.8 mm media, 0.25 ml slurry, HPC-SL 4:1): <1 μm,
Average Particle Size of Naproxen ([2]; 0.5 mg drug, 2 g 0.8 mm media, 0.5 ml slurry, HPC-SL 4:1): <1 μm,
Average Particle Size of Naproxen ([2]; 1.25 mg drug, 1 g 0.8 mm media, 0.25 ml slurry, HPC-SL 4:1): <1 μm,
Average Particle Size of Naproxen ([2]; 2.5 mg drug, 1 g 0.8 mm media, 0.25 ml slurry, HPC-SL 4:1): <0.5 μm
Average Particle Size of Naproxen ([2]; 5 mg drug, 1 g 0.8 mm media, 0.25 ml slurry, HPC-SL 4:1): <0.5 μm
Average Particle Size of Naproxen ([2]; 10 mg drug, 2 g 0.8 mm media, 0.5 ml slurry, HPC-SL drug:stabilizer 4:1): <0.5 μm
Structure (SMILES): COc1ccc2cc([C@H](C)C(=O)O)ccc2c1 [Naproxen]

Source: patent US20040173696A1, “Milling microgram quantities of nanoparticulate candidate compounds” (Elan Pharma International Ltd., priority 2002, published 2004)
